Assay results taken from the supplement of paper PMC10307832.

What was measured:
Assay in all cases: relative viability (nuclei count vs DMSO), 5 days (fraction); higher = more cells survive
[1] = compound: CC1(C)CNc2cc(NC(=O)c3cccnc3NCc3ccncc3)ccc21 [Motesanib]
How it was run: (§1)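 Acceptance criteria were a control CV below 25% and at least one doubling per plate. Lung cancer cell lines in 1536-well plates got five library-drug doses (not always all listed) √10 apart by pinning and were left 5 days with no medium change. Viability divides treated-well nuclei by vehicle-well nuclei and is the median across plates. Nuclei were counted by MetaXpress from 4× Hoechst images.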

[2] = compound: C[C@@]1(C(=O)Nc2ccc(F)nc2)CCCN1c1nc(Nc2cc(C3CC3)n[nH]2)c2cccn2n1
How it was run: as §1

[3] = compound: CC1(C)CNc2cc(NC(=O)c3cccnc3NCc3ccncc3)ccc21 [Motesanib] + CS(=O)(=O)N1CCN(Cc2cc3nc(-c4cccc5[nH]ncc45)nc(N4CCOCC4)c3s2)CC1 [Pictilisib] (partner 1 µM)
How it was run: (§2)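 Nuclei were stained with Hoechst during a one-step fixation (final 0.05% Triton X-100, 1% formaldehyde, 1 ug/ml Hoechst) carried out 5 days after dosing, then counted on 4× images. The cells, lung cancer lines in 1536-well plates, had been dosed by pin tool the day after seeding with one drug alone or a fixed anchor-drug dose plus five library-drug doses (not always all listed) in √10 steps. Relative viability is the nuclei count in treated wells divided by that in vehicle wells, and each value is the median of duplicate plates.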

[4] = compound: CC1(C)CNc2cc(NC(=O)c3cccnc3NCc3ccncc3)ccc21 [Motesanib] + Cc1nc(NC(=O)N2CCC[C@H]2C(N)=O)sc1-c1ccnc(C(C)(C)C(F)(F)F)c1 [Alpelisib] (partner 2 µM)
How it was run: as §2

UMC-11
relative viability ([1]; 0.01 µM): 0.951 | relative viability ([1]; 0.03162 µM): 1.07 | relative viability ([1]; 0.1 µM): 0.872 | relative viability ([1]; 0.3162 µM): 1 | relative viability ([1]; 1 µM): 1.13 | relative viability ([2]; 0.04 µM): 0.981 | relative viability ([2]; 0.1265 µM): 1.03 | relative viability ([2]; 0.4 µM): 0.907 | relative viability ([2]; 1.265 µM): 0.797 | relative viability ([3]; first compound 0.01 µM): 0.778 | relative viability ([3]; first compound 0.03162 µM): 0.923 | relative viability ([3]; first compound 0.1 µM): 0.5 | relative viability ([3]; first compound 0.3162 µM): 0.759 | relative viability ([3]; first compound 1 µM): 0.863 | relative viability ([4]; first compound 0.01 µM): 0.923 | relative viability ([4]; first compound 0.03162 µM): 0.973 | relative viability ([4]; first compound 0.1 µM): 0.981 | relative viability ([4]; first compound 0.3162 µM): 1.03 | relative viability ([4]; first compound 1 µM): 1.03
